Laboratory results from US20220119446A1, “BIOMARKERS AND TREATMENT OF NEURONAL INJURY AND NEURODEGENERATION” (Board of Supervisons of Louisiana State University and …, priority 2018, published 2022).
“Also recorded” adds a separate entry of the source. * marks the point of attachment. Boc = CC(C)(C)OC(=O)*

B1: Wnt5a: Recombinant Human/Mouse Wnt-5a Protein, CHO-derived (Gln38-Lys380), R&D systems 645-WN (protein)
chain: QVVIEANSWWSLGMNNPVQMSEVYIIGAQPLCSQLAGLSQGQKKLCHLYQDHMQYIGEGAKTGIKECQYQFRHRRWNCSTVDNTSVFGRVMQIGSRETAFTYAVSAAGVVNAMSRACREGELSTCGCSRAARPKDLPRDWLWGGCGDNIDYGYRFAKEFVDARERERIHAKGSYESARILMNLHNNEAGRRTVYNLADVACKCHGVSGSCSLKTCWLQLADFRKVGDALKEKYDSAAAMRLNSRGKLVQVNSRFNSPTTQDLVYIDPSPDYCVRNESTGSLGTQGRLCNKTSEGMDGCELMCCGRGYDQFKTVQTERCHCKFHWCCYVKCKKCTEIVDQFVCK

Assays:
Assay type in all cases: cell-based, human
FZD5 = assay: Western blot of FZD5 protein in hpRPE cells under UOS
Method: The pellet was re-suspended and denatured in 100 μl of 2× Laemmli sample buffer (Bio-Rad Laboratories) at 95° C. for 5 min. MCAo brain tissue and cell samples were homogenized using RIPA (Thermo Fisher Scientific) buffer supplemented with protease and phosphatase inhibitor cocktails (Sigma). The amount of 30 μg of total protein was loaded in NuPAGE® Novex® 4-12% Bis-Tris precast gels (Life Technologies Corporation) or Mini-PROTEAN TGX Stain free gels 4-15% and ran at constant 120V for 1 hour and 20 min or 250 V for 40 min respectively. Proteins were transferred to μm Nitrocellulose or LF-PVDF membrane using Bio-Rad Trans-Blot® Turbo™ System (Bio-Rad Laboratories). ECL™ Plex Fluorescent Rainbow Markers (GE Healthcare) were used as the ladder for protein's molecular weight. Membranes were blocked using 5% non-fat dry milk (Bio-Rad Laboratories) in TBS with 1% Tween® 20 (TBST-10X) for 1 hour and incubated overnight with primary antibodies. Anti-mouse or anti-rabbit secondary antibodies conjugated with Cy3 or Cy5 were used to visualize the protein of interest. Immunoblots were documented using LAS 4000 imaging system (GE Healthcare Life Sciences) or ChemiDoc MP Imaging System (BioRad Laboratories). A time course exposition was produced in each case to prevent quantification of saturated images. Densitometry data was obtained using ImageQuant™ TL software and XRS Blot Chemi Software (BioRad Laboratories).

NF-κB/p65 = NF-κB/p65 luciferase reporter assay in hpRPE cells
Method: We asked if Wnt5a activates inflammatory signaling to enhance apoptosis mediated by UOS by assessing COX-2 promoter activation (FIG. 10). […] To compare Wnt5a effects with other cytokines that enhance COX-2 expression, Interleukin-1β (IL-1β) activity was measured. […] To determine if Wnt5a activates NF-κB, hpRPE were transfected with a construct that encompassed three p65 high-affinity binding sites in tandem, driving the expression of the luciferase reporter gene (FIG. 1G). […] To assess whether or not FDZ5 and ROR2 were involved in NF-κB activation by Wnt5a, cells were co-transfected with siRNAs targeting the two receptors (FIG. 11).
(§1) Except TOP/FOP flash, the Luciferase activity can be standardized using a construct expressing GFP constitutively under CMV virus promoter. To assess luciferase activity, cell lysates can be obtained using Passive Lysis Buffer (Promega, Madison, Wis.) and mixed with a luciferase assay reagent (Promegam Madison, Wis.). Chemiluminescence produced by luciferase and fluorescence from GFP can be detected using Appliscan 2.3. Data can be analyzed using SkanIt 2.3 (Thermo Fisher Scientific, Waltham, Mass.).
(§2) Except TOP/FOP flash, the Luciferase activity was standardized using a construct expressing GFP constitutively under CMV virus promoter. To assess luciferase activity, cell lysates were obtained using Passive Lysis Buffer (Promega) and mixed with a luciferase assay reagent (Promega). Chemiluminescence produced by luciferase and fluorescence from GFP was detected using Appliscan 2.3. Data were analyzed using SkanIt 2.3 (Thermo Fisher Scientific).

β-catenin = assay: TOP Flash/FOP flash luciferase reporter in hpRPE cells; conditions: hpRPE cells undergoing UOS+/−NPD1
Description: We tested whether or not Wnt5a activates […] using TOP Flash/FOP flash reporter system in hpRPE cells undergoing UOS+/−NPD1 (FIG. 1g).
as §1, §2

COX-2 promoter = COX-2 promoter luciferase reporter assay; conditions: for COX-2 promoter activity (luciferase): hRPE cells, +/− 100 nM and 200 nM NPD1
Description: as §1
A, Design of luciferase reporter assay performed with COX-2 promoter construct. UOS was induced by the addition of 10 ng/ml TNFα and 600 μM H2O2 in ARPE-19 cells. The concentrations of Wnt5a used was 50 ng/ml. Cells were co-transfected with the constructs driving the expression of luciferase and a plasmid that constitutively expressed green fluorescent protein for standardization. Luciferase activity is denoted in luciferase activity units (LUC) and standardized using GFP fluorescent (GFP). B, Wnt5a and IL-1β effect time course on COX-2 promoter activity. […] Luciferase activity (LUC) was measured in ARPE-19 cells in the presence of 50 ng/ml Wnt5a or 20 ng/ml IL1-β. […] Luciferase activity measured in cells incubated with 50 ng/ml Wnt5a in the presence or absence of 100 nM (+) and 200 nM (++) NPD1.

[1] = hpRPE under UOS in the presence of Wnt5a 50 ng/ml, NPD1 100 or 200 nM, Pitstop2 25 μM

| Molecule | FZD5 protein abundance (FZD5; 100 nM NPD1, Wnt5a present) | FZD5 protein abundance (FZD5; 100 nM NPD1, absence of Wnt5a) | NF-κB/p65 activation (luciferase) (NF-κB/p65; [1]) | NF-κB activation in cells co-transfected with ROR2 and FZD5 siRNAs (NF-κB/p65; hpRPE under UOS, double knockdown) | NF-κB/p65 activation (luciferase) (NF-κB/p65; hpRPE under UOS, no Wnt5a added) | β-catenin activity (luciferase) (β-catenin) | COX-2 promoter activity (luciferase) (COX-2 promoter; 50 ng/ml Wnt5a) | FZD5 protein abundance (FZD5; Box5, even in the presence of Wnt5a 50 ng/ml) | time of peak COX-2 promoter activity after addition (COX-2 promoter; ARPE-19 cells, 50 ng/ml Wnt5a) [h] | COX-2 promoter activation (luciferase) (COX-2 promoter; ARPE-19 cells, 50 ng/ml Wnt5a or 20 ng/ml IL1-β) |
| --- | --- | --- | --- | --- | --- | --- | --- | --- | --- | --- |
| CC/C=C\C[C@H](O)\C=C/C=C/C=C/[C@H](O)C/C=C\C/C=C\CCC(=O)O [NPD1, 10R,17S-dihydroxy-docosa-4Z,7Z,11E,13E,15Z,19Z-hexaenoic acid] | steep decrease in the receptor content | no differences in the FZD5 receptor were observed | reduced luciferase activity; also recorded: affects its activation when Wnt5a is added | not affected | did not affect NF-κB/p65; also recorded: does not prevent activation of NF-κB triggered by UOS; also recorded: did not affect NFkB/p65 | not significantly altered | down by half; also recorded: prevents Wnt5a-induced activation of COX-2 promoter | – | – | – |
| t-Boc-NH-Met-Asp-Gly-Cys-Glu-Leu-CO2H (Boc-MDGCEL-OH) [Box5] | – | – | – | – | – | – | – | decreased FZD5 abundance by half of the level | – | – |
| B1 | – | – | heightens NF-κB activation; also recorded: heightened NFkB activation | – | – | did not affect β-catenin; also recorded: does not affect activation of β-catenin | increased COX-2 activation | – | 4 | induced COX-2 promoter activation |
